According to US12280148B2, “Composition for promoting extracellular vesicle production containing peptide derived from noxa protein and method for producing extracellular vesicles by using same” (Exocalibre Therapeutics Co., Ltd., priority 2020, dated 2025):

What follows are sequences tested on 293-HEK cell line (assay: Extracellular vesicle output quantified by Bradford solution). Settings: solution of Example 1, peptide 10 μM.
Type: cell-based, human
Procedure: The 293-HEK cell line was cultured in a 6-well plate at a rate of 2×10^5 cells/mL, and the next day, the cell line was treated with the solution of Example 1 and a peptide of any one of SEQ ID NOs: 1 to 21. […], the solution was removed, followed by centrifugation at an RCF of 12000, and the extracellular vesicles were quantified using the supernatant by Bradford solution.
“KLNFAEFLRNLISKLF (TU166) [Noxa protein-derived derivative peptide, 16aa]” was tested, and the “Amount of proteins contained in extracellular vesicles” value (from here on “Amount of proteins contained”) was 5.77 µg/µL. With “KLNFRQKLARLLTKLF (TU171) [Noxa protein-derived derivative peptide, 16aa]” the “Amount of proteins contained” value was 2.64 µg/µL. In the case of “AHFLRKLLNLISKLF (TU149) [Noxa protein-derived derivative peptide, 15aa]”, the “Amount of proteins contained” value is reported as 1.71 µg/µL. “KLNFRLGLRSLREKLF (TU168) [Noxa protein-derived derivative peptide, 16aa]” was tested, and the “Amount of proteins contained” value was 0.77 µg/µL. “AEYSRKLLNLISKLF (TU135) [Noxa protein-derived derivative peptide, 15aa]” was tested, and the “Amount of proteins contained” value was 1.81 µg/µL. With “KVSIFLKNLISKLF (TU156) [Noxa protein-derived derivative peptide, 14aa]” the “Amount of proteins contained” value was 1.17 µg/µL. With “GLKSLRKLLNLISKLF (TU111) [Noxa protein-derived derivative peptide, 16aa]” the “Amount of proteins contained” value was 4.17 µg/µL. “MEWWYLLKLLNLISKLF (TU104) [Noxa protein-derived derivative peptide, 17aa]” was tested, and the “Amount of proteins contained” value was 0.62 µg/µL. For “LRSLRDKLLNLISKLF (TU107) [Noxa protein-derived derivative peptide, 16aa]”, the “Amount of proteins contained” value was 5.58 µg/µL. In the case of “AEYRKLLNLISKLF (TU128) [Noxa protein-derived derivative peptide, 14aa]”, the “Amount of proteins contained” value is reported as 3.86 µg/µL. In the case of “YWLPLRKLLNLISKLF (TU146) [Noxa protein-derived derivative peptide, 16aa]”, the “Amount of proteins contained” value is reported as 2.01 µg/µL. For “KLLNLWSLLFGYTIK (TU103) [Noxa protein-derived derivative peptide, 15aa]”, the “Amount of proteins contained” value was 0.75 µg/µL. With “QFAQYLRNLISKLF (TU155) [Noxa protein-derived derivative peptide, 14aa]” the “Amount of proteins contained” value was 1.56 µg/µL. For “KLLNLWSLLKGYTIK (TU124) [Noxa protein-derived derivative peptide, 15aa]”, the “Amount of proteins contained” value was 3.30 µg/µL. For “AFFLRKLLNLISKLF (TU151) [Noxa protein-derived derivative peptide, 15aa]”, the “Amount of proteins contained” value was 1.51 µg/µL. KLLNLISKLF [MTD] was tested, and the “Amount of proteins contained” value was 0.80 µg/µL. With “LNFKWYSLLNLISKLF (TU172) [Noxa protein-derived derivative peptide, 16aa]” the “Amount of proteins contained” value was 0.83 µg/µL.

Same assay, conditions: solution of Example 1, peptide 20 μM
In the case of “KLNFAEFLRNLISKLF (TU166) [Noxa protein-derived derivative peptide, 16aa]”, the “Amount of proteins contained” value is reported as 6.68 µg/µL. For “KLNFRQKLARLLTKLF (TU171) [Noxa protein-derived derivative peptide, 16aa]”, the “Amount of proteins contained” value was 3.62 µg/µL. “AHFLRKLLNLISKLF (TU149) [Noxa protein-derived derivative peptide, 15aa]” was tested, and the “Amount of proteins contained” value was 2.00 µg/µL. “KLNFRLGLRSLREKLF (TU168) [Noxa protein-derived derivative peptide, 16aa]” was tested, and the “Amount of proteins contained” value was 2.17 µg/µL. In the case of “AEYSRKLLNLISKLF (TU135) [Noxa protein-derived derivative peptide, 15aa]”, the “Amount of proteins contained” value is reported as 4.41 µg/µL. For “KVSIFLKNLISKLF (TU156) [Noxa protein-derived derivative peptide, 14aa]”, the “Amount of proteins contained” value was 1.55 µg/µL. In the case of “GLKSLRKLLNLISKLF (TU111) [Noxa protein-derived derivative peptide, 16aa]”, the “Amount of proteins contained” value is reported as 4.98 µg/µL. With “MEWWYLLKLLNLISKLF (TU104) [Noxa protein-derived derivative peptide, 17aa]” the “Amount of proteins contained” value was 0.75 µg/µL. In the case of “LRSLRDKLLNLISKLF (TU107) [Noxa protein-derived derivative peptide, 16aa]”, the “Amount of proteins contained” value is reported as 6.69 µg/µL. “AEYRKLLNLISKLF (TU128) [Noxa protein-derived derivative peptide, 14aa]” was tested, and the “Amount of proteins contained” value was 5.29 µg/µL. “YWLPLRKLLNLISKLF (TU146) [Noxa protein-derived derivative peptide, 16aa]” was tested, and the “Amount of proteins contained” value was 2.89 µg/µL. For “KLLNLWSLLFGYTIK (TU103) [Noxa protein-derived derivative peptide, 15aa]”, the “Amount of proteins contained” value was 0.40 µg/µL. With “QFAQYLRNLISKLF (TU155) [Noxa protein-derived derivative peptide, 14aa]” the “Amount of proteins contained” value was 1.77 µg/µL. “KLLNLWSLLKGYTIK (TU124) [Noxa protein-derived derivative peptide, 15aa]” was tested, and the “Amount of proteins contained” value was 5.02 µg/µL. “AFFLRKLLNLISKLF (TU151) [Noxa protein-derived derivative peptide, 15aa]” was tested, and the “Amount of proteins contained” value was 1.30 µg/µL. KLLNLISKLF [MTD] was tested, and the “Amount of proteins contained” value was 1.17 µg/µL. In the case of “LNFKWYSLLNLISKLF (TU172) [Noxa protein-derived derivative peptide, 16aa]”, the “Amount of proteins contained” value is reported as 0.44 µg/µL.

Same assay, conditions: solution of Example 1, peptide 40 μM
In the case of “KLNFAEFLRNLISKLF (TU166) [Noxa protein-derived derivative peptide, 16aa]”, the “Amount of proteins contained” value is reported as 8.10 µg/µL. With “KLNFRQKLARLLTKLF (TU171) [Noxa protein-derived derivative peptide, 16aa]” the “Amount of proteins contained” value was 5.30 µg/µL. For “AHFLRKLLNLISKLF (TU149) [Noxa protein-derived derivative peptide, 15aa]”, the “Amount of proteins contained” value was 2.57 µg/µL. In the case of “KLNFRLGLRSLREKLF (TU168) [Noxa protein-derived derivative peptide, 16aa]”, the “Amount of proteins contained” value is reported as 3.74 µg/µL. For “AEYSRKLLNLISKLF (TU135) [Noxa protein-derived derivative peptide, 15aa]”, the “Amount of proteins contained” value was 6.54 µg/µL. With “KVSIFLKNLISKLF (TU156) [Noxa protein-derived derivative peptide, 14aa]” the “Amount of proteins contained” value was 3.93 µg/µL. For “GLKSLRKLLNLISKLF (TU111) [Noxa protein-derived derivative peptide, 16aa]”, the “Amount of proteins contained” value was 6.44 µg/µL. In the case of “MEWWYLLKLLNLISKLF (TU104) [Noxa protein-derived derivative peptide, 17aa]”, the “Amount of proteins contained” value is reported as 1.02 µg/µL. For “LRSLRDKLLNLISKLF (TU107) [Noxa protein-derived derivative peptide, 16aa]”, the “Amount of proteins contained” value was 7.45 µg/µL. For “AEYRKLLNLISKLF (TU128) [Noxa protein-derived derivative peptide, 14aa]”, the “Amount of proteins contained” value was 7.25 µg/µL. With “YWLPLRKLLNLISKLF (TU146) [Noxa protein-derived derivative peptide, 16aa]” the “Amount of proteins contained” value was 3.50 µg/µL. With “KLLNLWSLLFGYTIK (TU103) [Noxa protein-derived derivative peptide, 15aa]” the “Amount of proteins contained” value was 0.55 µg/µL. With “QFAQYLRNLISKLF (TU155) [Noxa protein-derived derivative peptide, 14aa]” the “Amount of proteins contained” value was 2.85 µg/µL. In the case of “KLLNLWSLLKGYTIK (TU124) [Noxa protein-derived derivative peptide, 15aa]”, the “Amount of proteins contained” value is reported as 6.24 µg/µL. In the case of “AFFLRKLLNLISKLF (TU151) [Noxa protein-derived derivative peptide, 15aa]”, the “Amount of proteins contained” value is reported as 1.40 µg/µL. With KLLNLISKLF [MTD] the “Amount of proteins contained” value was 2.87 µg/µL. For “LNFKWYSLLNLISKLF (TU172) [Noxa protein-derived derivative peptide, 16aa]”, the “Amount of proteins contained” value was 0.59 µg/µL.

The sequences below were run on 293-HEK cell line (assay: Extracellular vesicle size and quantity by Nanoparticle Tracking Analysis (NTA)). Settings: 50-fold diluted, solution of Example 1, peptide 20 μm, after 20 minutes.
Type: cell-based, human
Procedure: After the 293-HEK cell line was cultured to 90% confluency (about 2×10^7 cells) in a 10-cm culture dish, the culture was removed, and the cells were treated with the eMTDΔ4 peptide (final concentration: 20 μm), which has been dissolved in 5 ml of the solution of Example 1. After 20 minutes, the solution was removed, followed by centrifugation at an RCF of 12000, and then the size and quantity of extracellular vesicles were measured using a Nanoparticle Tracking Analysis (NTA) system (Nanosight LM10, Malvern Instruments).
For “RPARPARGGKLLNLISKLF (TU17) [Noxa protein-derived derivative peptide, 19aa]”, the “Quantity of extracellular vesicles” value was 7.95e+08 ± 7.15e+07 mL⁻¹. In the case of “KWYAKLLNLISKLF (TU114) [Noxa protein-derived derivative peptide, 14aa]”, the “Quantity of extracellular vesicles” value is reported as 8.75e+08 ± 9.27e+07 mL⁻¹. With KLLNLISKLF [MTD] the “Quantity of extracellular vesicles” value was 8.01e+08 ± 1.75e+07 mL⁻¹.

These sequences were tested on HeLa cell line (assay: Production of extracellular vesicles, observed by optical microscope (bright field)). Settings: solution of Example 1 (250 mM sucrose), peptide final concentration 20 μM, after 10 minutes.
Type: cell-based, human
Procedure: After the HeLa cell line was cultured in a 6-well plate, the culture was removed, and then the HeLa cell line was treated with the solution in Example 1.
The control group was not treated with any peptide, and the experiment group was treated with eMTDΔ4 peptide of SEQ ID NO: 2 (final concentration: 20 μM). After 10 minutes, the generation of extracellular vesicles was observed by an optical microscope (bright field), and the observation results are shown in FIG. 1.
Extracellular vesicle production was carried out by the experimental method of Experimental Example 2-1 using the R(8):MTD peptide of SEQ ID NO: 4 and the solutions of Example 1 and Comparative Examples 1 to 18, and the results are shown in FIGS. 2A to 2S.
Extracellular vesicle production was carried out by the experimental method of Example 2-1 using the R(8):MTD peptide of SEQ ID NO: 4 and the solutions of Examples 1 to 3 on Table 3, and the results are shown in FIGS. 3A to 3C.
RRRRRRRRKLLNLISKLF [R(8):MTD] was tested, and the “generation of extracellular vesicles” value was “many extracellular vesicle particles were generated”.

Same assay, conditions: solutions of Comparative Examples 1 to 18 (FIGS. 2B to 2S)
For RRRRRRRRKLLNLISKLF [R(8):MTD], the “generation of extracellular vesicles” value was “extracellular vesicle particles were not generated”.

Same assay, conditions: solutions of Examples 1 to 3, excess of glucose or sorbitol instead of sucrose
In the case of RRRRRRRRKLLNLISKLF [R(8):MTD], the “generation of extracellular vesicles” value is reported as “extracellular vesicles were well formed”.
